The subject of test [1] is antibody production. Briefly: Mouse Hemagglutinin assay, oral administration (pooled serum assay procedure). The test is classed as in vivo, mouse (Swiss). The following applies: P.O., nine daily doses; for minimal effective dose: Mus musculus, po, read-out: MED (minimum effective dose: lowest drug dose producing 75 percent or greater antibody suppression). On the procedure:
Groups of five 20-gram, male, random-bred, Swiss mice received intravenous injections of 5×10^7 sheep red blood cells. The cells for these injections were prepared from lamb's blood (collected in Alsever's solution) by washing three times with 0.85 percent saline. Nine daily doses of each compound to be tested, solubilized in polyethylene glycol 400, were administered orally in 0.1 ml. doses, commencing three days prior to red blood cell injection. Several dose levels of each compound were employed, at 2-fold increments. A control group of mice, receiving a red blood cell injection and nine daily doses of vehicle instead of drug, was included. Six days after the antigen injections, the mice were bled by cardiac puncture and the blood from each 5-mouse group pooled. […] Following incubation of the trays for 3 hours at 37° C., the hemagglutination patterns were graded.

The test system of test [2] is GVH reaction. Briefly: Graft-Versus-Host (GVH) Reaction. The test is classed as in vivo, mouse (C57BL×C3H). The note with it: for minimal effective dose: 312 h, read-out: Endpoint Dose (p < 0.05): lowest drug dose significantly lowering the spleen/body weight ratio. On the procedure:
In this test, parental (C57BL) mouse spleen cells are injected into mice of an F1 hybrid strain (C57BL×C3H). […] As a consequence, the recipient's spleen becomes enlarged. Immunosuppression prevents or reduces this enlargement. Thus, spleen weights provide a measure of the GVH reaction and its reduction under immunosuppression.
A modification of Simonsen's original procedure (Ann. N.Y. Acad. Sci., 73, 834 (1958) was employed. Large crops of spleen cells were obtained, without the generally employed manual teasing of spleens, by using Waring blendors with the cutting blades reversed. Two six-second blending periods buffeted the spleens (batches of 25 C57BL spleens in 25-ml. saline) sufficiently to free the cells from the connective tissue. The latter was removed by filtration through several thicknesses of cheesecloth. Cell suspensions prepared in this fashion were standardized, by means of Levy-Hausser chamber counts, to contain 6×10^8 nucleated cells per ml. Groups of ten 16-18 gram C57BL×C3H mice were injected intraperitoneally with 1 ml. of the donor cell suspension. The compounds were administered either orally (P.O.) or subcutaneously (S.C.) in a vehicle composed of saline containing 0.125% methylcellulose and 0.2% emulphor, commencing 3 days prior to cell injection and continuing daily for 13 days. Control animals received only cells and vehicle. The spleens were removed and weighed 10 days following cell injection, and the mg. spleen/gram body weight was calculated.
The compounds were administered at several dose levels and the mean spleen/body weight ratio at each dose level was compared to the control group which received only the vehicle. The p values (by Student's two-tail t Test) were determined as compared to the control group. […] The results obtained in the graft-versus-host reaction with the compounds of this invention and standard compounds are summarized in Table III.

In test [3] the test system is antibody titer. Briefly: Individual Serum Assay Procedure (mouse hemagglutinin, oral). The test is classed as in vivo, mouse (Swiss). The note with it: read-out: Endpoint Dose (p < 0.05): lowest drug dose significantly lowering antibody titer.
Test [4] has as its system adjuvant-induced arthritis. Briefly: Adjuvant-induced Arthritis Test in Rats: uninjected paw volume inflammation. The note with it: days 11 through 25. Format: in vivo, rat (Lewis-Wistar).
The subject of test [5] is adjuvant-induced arthritis. Briefly: Adjuvant-induced Arthritis Test in Rats: bone damage by X-ray. Format: in vivo, rat (Lewis-Wistar). The note with it: X-ray day 25.
[6] abbreviates: po, P.O., daily for 13 days, mouse.
[7] abbreviates: P.O., ten daily doses, mouse, individual serum.

The structures appear in SMILES notation. Structures can show the parent of a compound that is named as a salt. Where two headings read alike, the source gives them in different places. Where only a bound is given, the exact number is not on record here.

Take `C[n+]1c2ccc(Cl)cc2n2c(=O)c3cccc4cccc(c43)c21`: the minimal effective dose in test [1] is greater than 100 mg/kg.
Same read-out and setting: for `C[n+]1c2ccc(C(F)(F)F)cc2n2c(=O)c3cccc4cccc(c43)c21` the value was 100 mg/kg; for `C[n+]1c2cc(Cl)ccc2n2c(=O)c3cccc4cccc(c43)c21`, 100 mg/kg.
On the same count and under the same terms, then `O=c1c2cccc3cccc(c32)c2nc3ccc(Br)cc3n12` [10-bromo, 10-bromo-7H-benzimidazo[2,1-a]benz[de]isoquinoline-7-one], with 12.5 mg/kg; and `O=c1c2cccc3cccc(c32)c2nc3ccc(Cl)cc3n12` [10-chloro, 10-chloro-7H-benzimidazo[2,1-a]benz[de]isoquinoline-7-one], with 3.1 mg/kg.
With `O=c1c2cccc3cccc(c32)c2nc3ccc(C(F)(F)F)cc3n12` [10-trifluoromethyl, 10-(trifluoromethyl)-7H-benzimidazo[2,1-a]benz[de]isoquinoline-7-one], the minimal effective dose in test [1] is 25 mg/kg; in test [2] (setting [6]) it was less than 25 mg/kg.
Consider `O=c1c2cccc3cccc(c32)c2nc3cc(Br)ccc3n12` [11-bromo, 11-bromo-7H-benzimidazo[2,1-a]benz[de]isoquinoline-7-one], for which the minimal effective dose is 1.6 mg/kg in test [1], 12.5 mg/kg in test [3] (setting [7]) and less than 25 mg/kg in test [2] (setting [6]).
With `O=c1c2cccc3cccc(c32)c2nc3cc(Cl)ccc3n12` [11-chloro(p-toluenesulfonate salt)], in test [1], the “MED (minimum effective dose: lowest drug dose producing 75 percent or greater antibody suppression)” value is on record as 6.25 mg./kg. × 9.
For `O=c1c2cccc3cccc(c32)c2nc3cc(Cl)ccc3n12` [11-chloro, 11-chloro-7H-benzimidazo[2,1-a]benz[de]isoquinoline-7-one], the “MED (minimum effective dose: lowest drug dose producing 75 percent or greater antibody suppression)” value in test [1] was 0.4 mg./kg. × 9. The minimal effective dose in test [3] (setting [7]) was 0.2 mg/kg; in test [2] (Mus musculus, po) it was 12.5 mg/kg.
In the case of `O=c1c2cccc3cccc(c32)c2nc3cc(F)ccc3n12` [11-fluoro, 11-fluoro-7H-benzimidazo[2,1-a]benz[de]isoquinoline-7-one], the minimal effective dose in test [1] worked out at 12.5 mg/kg.
As for `O=c1c2cccc3cccc(c32)c2nc3cc(C(F)(F)F)ccc3n12` [11-trifluoromethyl(p-toluenesulfonate salt)], the “MED (minimum effective dose: lowest drug dose producing 75 percent or greater antibody suppression)” value in test [1] was 3.1 mg./kg. × 9.
Turning to `O=c1c2cccc3cccc(c32)c2nc3cc(C(F)(F)F)ccc3n12` [11-trifluoromethyl, 11-(trifluoromethyl)-7H-benzimidazo[2,1-a]benz[de]isoquinoline-7-one], the “MED (minimum effective dose: lowest drug dose producing 75 percent or greater antibody suppression)” value in test [1] was determined as 0.2 mg./kg. × 9. In addition, the minimal effective dose in test [3] (setting [7]) is 0.4 mg/kg; in test [2] (Mus musculus, po), 12.5 mg/kg; in test [2] (sc, S.C., daily for 13 days, mouse), less than 0.1 mg/kg. Moreover, the “% Inhibition of uninjected paw volume inflammation (AUC)” value in test [4] (Test 1, 100 mg./kg. P.O. × 24) stood at 85.8%; in test [4] (Test 2, 50 mg./kg. P.O. × 24), 55.9%. The “inhibition of bone damage, injected paws” value in test [5] (Test 1 (100 mg./kg. P.O. × 24)) stood at 68%; in test [5] (Test 2 (50 mg./kg. P.O. × 24)), 66%. Further, the “inhibition of bone damage, uninjected paws, compared to TB control group” value in test [5] (Test 1 (100 mg./kg. P.O. × 24)) stood at 94%; in test [5] (Test 2 (50 mg./kg. P.O. × 24)), 88%.
Turning to `C[n+]1c2cc(C(F)(F)F)ccc2n2c(=O)c3cccc4cccc(c43)c21` [13-methyl-7-oxo-11-(trifluoromethyl)-7H-benzimidazo[2,1-a]benz[de]isoquinolinium 4-methylbenzenesulfonate], the minimal effective dose came to 1.6 mg/kg in test [1]; 12.5 mg/kg in test [3] (Mus musculus); 12.5 mg/kg in test [2] (Mus musculus, po).
Take `Cn1cnc([N+](=O)[O-])c1Sc1ncnc2nc[nH]c12` [Azathioprine, reference compound]: the minimal effective dose in test [1] and in test [3] (setting [7]) was 100 mg/kg throughout. Moreover, the “Endpoint Dose (p < 0.05): lowest drug dose significantly lowering the spleen/body weight ratio” value in test [2] (P.O., daily for 13 days, mouse) is 12.5 mg./kg. × 13.
As to `C[C@]12CCC(=O)C=C1CC[C@@H]1[C@@H]2C(=O)C[C@@]2(C)[C@H]1CC[C@]2(O)C(=O)CO` [Cortisone, reference compound], in test [2] (setting [6]), the minimal effective dose amounted to 3.1 mg/kg.
Take `O=P1(N(CCCl)CCCl)NCCCO1` (stereo not shown) [Cyclophosphamide, reference compound]: the minimal effective dose in test [2] (setting [6]) amounted to 12.5 mg/kg.
For the molecule `CC(C(=O)O)c1cccc(Oc2ccccc2)c1` (stereo not shown) [Fenoprofen, reference compound], the “% Inhibition of uninjected paw volume inflammation (AUC)” value was determined as 44.0% in test [4] (Test 1, 40 mg./kg. P.O. × 24) and 60.7% in test [4] (Test 2, 40 mg./kg. P.O. × 24).
For the molecule `CN(Cc1cnc2nc(N)nc(N)c2n1)c1ccc(C(=O)N[C@@H](CCC(=O)O)C(=O)O)cc1` [Methotrexate, reference compound], the minimal effective dose in test [2] (Mus musculus, po) is 0.2 mg/kg.

Source of the values: patent US4413126A, “Preparation of isoquinoline derivatives useful as immune regulants” (Eli Lilly and Company, priority 1982, dated 1983).
